“Also recorded” adds a separate entry of the source.

In the experiment the test system is Raw264.7 cells expressing mPTPB. Put plainly: Akt phosphorylation by Western blotting. In kind it is cell-based, mouse. As to conditions: mPTPB expressing Raw264.7 macrophages, IFN-γ 200 U/ml; 6c at 240 nM.

As to `O=C(O)c1cc2c(CCc3ccc(OC(F)(F)F)cc3)c(-c3ccccc3)oc2cc1O` [Compound 6c, 6-hydroxy-2-phenyl-3-(4-(trifluoromethoxy)phenethyl)benzofuran-5-carboxylic acid], the “Akt activity (phospho-Akt)” value is listed as “unable to reverse”.
Under `O=C(O)c1cc2c(C#Cc3cccc(C(F)(F)F)c3)c(-c3ccccc3)oc2cc1O` [Compound 4g, 6-hydroxy-2-phenyl-3-((3-(trifluoromethyl)phenyl)ethynyl)benzofuran-5-carboxylic acid] stands “normalized; also recorded: blocks”.

Source of the values: publication PMC3574584 (Journal of medicinal chemistry, 2013).
